Assay results taken from ChEMBL document CHEMBL1201862, “PubChem BioAssay data set” (2004).
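Assay format: 96-well plates, 48-hour exposure. At the GI50, growth is halved.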 Active and inactive are the calls of the source. Cut-off read from the data, not from the text of the source: active = GI50 up to about 1.1 µM and inactive = higher.

Assays:
Assay in all cases: NCI tumour cell line growth inhibition, 48 h
[1] = tested on: 786-0
[2] = tested on: A498
[3] = tested on: A549
[4] = tested on: ACHN
[5] = tested on: BT-549
[6] = tested on: CCRF-CEM
[7] = tested on: COLO 205
[8] = tested on: DU-145
[9] = tested on: EKVX
[10] = tested on: HCT-116
[11] = tested on: HCT-15
[12] = tested on: HL-60
[13] = tested on: HOP-62
[14] = tested on: HT-29
[15] = tested on: Hs-578T
[16] = tested on: IGROV-1
[17] = tested on: K562
[18] = tested on: KM12
[19] = tested on: LOX IMVI
[20] = tested on: M14
[21] = tested on: MCF7
[22] = tested on: MDA-MB-231
[23] = tested on: MDA-MB-435
[24] = tested on: MDA-N
[25] = tested on: MOLT-4
[26] = tested on: Malme-3M
[27] = tested on: NCI-H226
[28] = tested on: NCI-H23
[29] = tested on: NCI-H460
[30] = tested on: NCI-H522
[31] = tested on: NCI/ADR-RES
[32] = tested on: OVCAR-3
[33] = tested on: OVCAR-4
[34] = tested on: OVCAR-5
[35] = tested on: OVCAR-8
[36] = tested on: PC-3
[37] = tested on: RPMI-8226
[38] = tested on: RXF 393
[39] = tested on: SF-268
[40] = tested on: SF-295
[41] = tested on: SK-MEL-28
[42] = tested on: SK-MEL-2
[43] = tested on: SK-MEL-5
[44] = tested on: SK-OV-3
[45] = tested on: SN12C
[46] = tested on: SNB-19
[47] = tested on: SNB-75
[48] = tested on: SR
[49] = tested on: SW-620
[50] = tested on: T47D
[51] = tested on: TK-10
[52] = tested on: U-251
[53] = tested on: UACC-257
[54] = tested on: UACC-62
[55] = tested on: UO-31
[56] = tested on: CAKI-1
[57] = tested on: HOP-92
[58] = tested on: SF-539

In the case of `NC(=O)CNC(=O)[C@@H]1CC(OCCC(=O)O)CN1C(=O)C1CCCN1C(=O)OCc1ccccc1` (stereo partly drawn), the GI50 [1] is reported as > 100 µM (inactive), the GI50 [2] is reported as > 100 µM (inactive) and the GI50 [3] is reported as > 100 µM (inactive). For the same compound, the GI50 [4] was > 100 µM (inactive), the GI50 [5] was > 100 µM (inactive) and the GI50 [6] was > 100 µM (inactive). For the same compound, the GI50 [7] was > 100 µM (inactive), the GI50 [8] was > 100 µM (inactive) and the GI50 [9] was 2.74 µM (inactive). The GI50 [10] was > 100 µM (inactive), the GI50 [11] was over 100 µM and the GI50 [12] was > 100 µM (inactive). The GI50 [13] was > 100 µM (inactive), the GI50 [14] was > 100 µM (inactive) and the GI50 [15] was > 100 µM (inactive). For the same compound, the GI50 [16] was > 100 µM (inactive), the GI50 [17] was > 100 µM (inactive) and the GI50 [18] was > 100 µM (inactive). The GI50 [19] was > 100 µM (inactive), the GI50 [20] was > 100 µM (inactive) and the GI50 [21] was > 100 µM (inactive). The GI50 [22] was > 100 µM (inactive), the GI50 [23] was > 100 µM (inactive) and the GI50 [24] was > 100 µM (inactive). For the same compound, the GI50 [25] was > 100 µM (inactive), the GI50 [26] was > 100 µM (inactive) and the GI50 [27] was > 100 µM (inactive). The GI50 [28] was > 100 µM (inactive), the GI50 [29] was > 100 µM (inactive) and the GI50 [30] was > 100 µM (inactive). The GI50 [31] was > 100 µM (inactive), the GI50 [32] was > 100 µM (inactive) and the GI50 [33] was > 100 µM (inactive). For the same compound, the GI50 [34] was > 100 µM (inactive), the GI50 [35] was > 100 µM (inactive) and the GI50 [36] was > 100 µM (inactive). For the same compound, the GI50 [37] was > 100 µM (inactive), the GI50 [38] was > 100 µM (inactive) and the GI50 [39] was 49.2 µM (inactive). For the same compound, the GI50 [40] was > 100 µM (inactive), the GI50 [41] was > 100 µM (inactive) and the GI50 [42] was > 100 µM (inactive). The GI50 [43] was > 100 µM (inactive), the GI50 [44] was > 100 µM (inactive) and the GI50 [45] was > 100 µM (inactive). The GI50 [46] was > 100 µM (inactive), the GI50 [47] was > 100 µM (inactive) and the GI50 [48] was > 100 µM (inactive). The GI50 [49] was > 100 µM (inactive), the GI50 [50] was > 100 µM (inactive) and the GI50 [51] was > 100 µM (inactive). For the same compound, the GI50 [52] was > 100 µM (inactive), the GI50 [53] was > 100 µM (inactive) and the GI50 [54] was > 100 µM (inactive). For the same compound, the GI50 [55] was > 100 µM (inactive).
With `CCOc1ccccc1/C=C(/C#N)C(N)=O` the GI50 [1] was > 100 µM (inactive), the GI50 [2] was > 100 µM (inactive) and the GI50 [3] was > 100 µM (inactive). The GI50 [4] was > 100 µM (inactive), the GI50 [5] was > 100 µM (inactive) and the GI50 [56] was > 100 µM (inactive). The GI50 [6] was 10.3 µM (inactive), the GI50 [7] was > 100 µM (inactive) and the GI50 [8] was > 100 µM (inactive). For the same compound, the GI50 [9] was > 100 µM (inactive), the GI50 [10] was 78.3 µM (inactive) and the GI50 [11] was 59 µM. The GI50 [12] was 21.6 µM (inactive), the GI50 [13] was > 100 µM (inactive) and the GI50 [57] was > 100 µM (inactive). The GI50 [14] was > 100 µM (inactive), the GI50 [15] was > 100 µM (inactive) and the GI50 [16] was > 100 µM (inactive). For the same compound, the GI50 [17] was 36.2 µM (inactive), the GI50 [18] was > 100 µM (inactive) and the GI50 [19] was > 100 µM (inactive). The GI50 [20] was > 100 µM (inactive), the GI50 [21] was 41.7 µM (inactive) and the GI50 [22] was > 100 µM (inactive). The GI50 [23] was 18.2 µM (inactive), the GI50 [24] was 18.7 µM (inactive) and the GI50 [25] was 83.9 µM (inactive). For the same compound, the GI50 [26] was > 100 µM (inactive), the GI50 [27] was > 100 µM (inactive) and the GI50 [28] was > 100 µM (inactive). The GI50 [29] was > 100 µM (inactive), the GI50 [30] was > 100 µM (inactive) and the GI50 [31] was > 100 µM (inactive). For the same compound, the GI50 [32] was > 100 µM (inactive), the GI50 [33] was > 100 µM (inactive) and the GI50 [34] was > 100 µM (inactive). The GI50 [35] was > 100 µM (inactive), the GI50 [36] was > 100 µM (inactive) and the GI50 [37] was > 100 µM (inactive). For the same compound, the GI50 [38] was > 100 µM (inactive), the GI50 [39] was > 100 µM (inactive) and the GI50 [40] was > 100 µM (inactive). For the same compound, the GI50 [58] was 70.6 µM (inactive), the GI50 [41] was > 100 µM (inactive) and the GI50 [42] was > 100 µM (inactive). The GI50 [43] was 78.3 µM (inactive), the GI50 [44] was > 100 µM (inactive) and the GI50 [45] was > 100 µM (inactive). For the same compound, the GI50 [46] was > 100 µM (inactive), the GI50 [47] was > 100 µM (inactive) and the GI50 [48] was 23.9 µM (inactive). The GI50 [49] was 60 µM (inactive), the GI50 [50] was > 100 µM (inactive) and the GI50 [51] was > 100 µM (inactive). For the same compound, the GI50 [52] was > 100 µM (inactive), the GI50 [53] was > 100 µM (inactive) and the GI50 [54] was 96.2 µM (inactive). For the same compound, the GI50 [55] was 85.3 µM (inactive).
